What all share (type): in vivo
The subject of assay [1] is Beet Armyworm (Spodoptera exigua, LAPHEG). Nature of the assay: Bioassay on Beet Armyworm (BAW), 128-well diet tray assay. Particulars: Species BAW (Beet Armyworm), read-out: BAW (Biological Results, rating). An outline of the steps:
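Second instar larvae were exposed to diet treated at 50 μg/cm^2 for five to seven days at 25° C.; mortality was averaged over eight wells.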

The subject of assay [2] is Cabbage Looper (Trichoplusia ni, TRIPNI). As to the kind of experiment: Bioassay on Cabbage Looper (CL), 128-well diet tray assay. The following applies: Trichoplusia ni; Species CL (Cabbage Looper); read-out: CL (Biological Results, rating). An outline of the steps: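 Using eight wells per molecule, artificial diet was dosed at 50 μg/cm^2 with compound in 90:10 acetone-water and dried before one to five second-instar larvae were added per well. Covered vented trays were kept at 25° C. with 14:10 light-dark for five to seven days, then per-well percent mortality was recorded and averaged.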

Assay [3] has as its system Yellow Fever Mosquito (Aedes aegypti, AEDSAE). As to the kind of experiment: Bioassay on Yellow Fever Mosquito (YFM), 96-well plate larval assay. The following applies: for YFM (Biological Results, rating): Species YFM (Yellow Fever Mosquito); for YFM rating: Yellow Fever Mosquito, 96-well plate larval assay. How it is done:
Certain molecules disclosed in this document were tested against YFM using procedures described in the following paragraph. In the reporting of the results, the “GPA & YFM Rating Table” was used (See Table Section).
Master plates containing 400 μg of a molecule dissolved in 100 μL of dimethyl sulfoxide (DMSO) (equivalent to a 4000 ppm solution) are used. A master plate of assembled molecules contains 15 μL per well. To this plate, 135 μL of a 90:10 water/acetone mixture is added to each well. A robot is programmed to dispense 15 μL aspirations from the master plate into an empty 96-well shallow plate (“daughter” plate). There are 6 reps (“daughter” plates) created per master. The created “daughter” plates are then immediately infested with YFM larvae.
The day before plates are to be treated, mosquito eggs are placed in Millipore water containing liver powder to begin hatching (4 g. into 400 mL). After the “daughter” plates are created using the robot, they are infested with 220 μL of the liver powder/larval mosquito mixture (about 1 day-old larvae). After plates are infested with mosquito larvae, a non-evaporative lid is used to cover the plate to reduce drying. Plates are held at room temperature for 3 days prior to grading. After 3 days, each well is observed and scored based on mortality. The results are indicated in the table entitled “Table ABC: Biological Results” (See Table Section).

SMILES strings stand for the structures.

As to `O=C(Nc1ccc(F)cc1)c1cc(NC(=O)[C@H]2[C@H](c3cc(Cl)cc(Cl)c3)C2(Cl)Cl)ccc1C(F)(F)F` (relative stereo) [F3, trans-5-(2,2-Dichloro-3-(3,5-dichlorophenyl)cyclopropane-1-carboxamido)-N-(4-fluorophenyl)-2-(trifluoromethyl)benzamide], the pest or weed control at 50 µg/cm2 in assay [1] and in assay [2] was 50 to 100% throughout. Also, the “YFM (Biological Results, rating)” value in assay [3] is listed as “A (80-100)”.
Consider `O=C(Nc1ccc(F)cc1)c1cc(NC(=O)[C@H]2[C@H](c3cc(Cl)cc(Cl)c3)C2(Cl)Cl)ccc1I` (relative stereo) [F4, trans-5-(2,2-Dichloro-3-(3,5-dichlorophenyl)cyclopropane-1-carboxamido)-N-(4-fluorophenyl)-2-iodobenzamide], for which the pest or weed control at 50 µg/cm2 in assay [1] and in assay [2] was 50 to 100% throughout. Further, the “YFM (Biological Results, rating)” value in assay [3] was “A (80-100)”.
Take `O=C(Nc1ccc(F)cc1)c1cc(NC(=O)[C@H]2[C@H](c3cc(Cl)cc(Cl)c3)C2(Cl)Cl)ccc1-n1cncn1` (relative stereo) [F12, trans-5-(2,2-Dichloro-3-(3,5-dichlorophenyl)cyclopropane-1-carboxamido)-N-(4-fluorophenyl)-2-(1H-1,2,4-triazol-1-yl)benzamide]: the pest or weed control at 50 µg/cm2 in assay [1] and in assay [2] was 50 to 100% throughout. The “YFM (Biological Results, rating)” value in assay [3] is listed as “A (80-100)”.
On to `O=C(Nc1ccc(F)cc1)c1cc(NC(=O)[C@H]2[C@H](c3cc(Cl)cc(Cl)c3)C2(Cl)Cl)c(Cl)cc1Cl` (relative stereo) [F250, trans-2,4-Dichloro-5-(2,2-dichloro-3-(3,5-dichlorophenyl)cyclopropane-1-carboxamido)-N-(4-fluorophenyl)benzamide], for which, in assay [1], the pest or weed control at 50 µg/cm2 lay in the range of 0 to 50%. For the same compound, the “YFM (Biological Results, rating)” value in assay [3] is reported as “B (More than 0-Less than 80)”.
In the case of `O=C(Nc1ccccc1)c1cc(NC(=O)[C@H]2[C@H](c3cc(Cl)cc(Cl)c3)C2(Cl)Cl)c(Cl)cc1Cl` (relative stereo) [F254, trans-2,4-Dichloro-5-(2,2-dichloro-3-(3,5-dichlorophenyl)cyclopropane-1-carboxamido)-N-phenylbenzamide], the “YFM (Biological Results, rating)” value in assay [3] is on record as “A (80-100)”.
As for `O=C(Nc1ccc(Cl)nn1)c1cc(NC(=O)[C@H]2[C@H](c3cc(Cl)cc(Cl)c3)C2(Cl)Cl)ccc1Cl` (relative stereo) [PF148, trans-2-Chloro-N-(6-chloropyridazin-3-yl)-5-(2,2-dichloro-3-(3,5-dichlorophenyl)cyclopropane-1-carboxamido)benzamide], in assay [3], the YFM rating result is “A (80-100)”.
On to `O=C(Nc1ncc(F)cc1F)c1cc(NC(=O)[C@H]2[C@H](c3cc(Cl)cc(Cl)c3)C2(Cl)Cl)ccc1Cl` [F309, 2-Chloro-5-((1R,3R)-2,2-dichloro-3-(3,5-dichlorophenyl)cyclopropane-1-carboxamido)-N-(3,5-difluoropyridin-2-yl)benzamide], for which the “YFM (Biological Results, rating)” value in assay [3] is “A (80-100)”.
On to `O=C(Nc1cc(F)cc([N+](=O)[O-])c1)c1cc(NC(=O)[C@H]2[C@H](c3cc(Cl)cc(Cl)c3)C2(Cl)Cl)ccc1Cl` [F415, 2-Chloro-5-((1R,3R)-2,2-dichloro-3-(3,5-dichlorophenyl)cyclopropane-1-carboxamido)-N-(3-fluoro-5-nitrophenyl)benzamide], for which the YFM rating entry in assay [3] is “A (80-100)”.
With `O=C(Nc1ccc(F)cc1F)c1cc(NC(=O)C2C(c3cc(F)c(F)c(F)c3)C2(Cl)Cl)ccc1Cl` (stereo not drawn) [F582, 2-Chloro-5-cis-(2,2-dichloro-3-(3,4,5-trifluorophenyl)cyclopropane-1-carboxamido)-N-(2,4-difluorophenyl)benzamide], the YFM rating entry in assay [3] is listed as “A (80-100)”.
In the case of `N#Cc1ccc(NC(=O)c2cc(NC(=O)C3C(c4cc(Cl)cc(Cl)c4)C3(Cl)Cl)ccc2Cl)cc1Cl` (stereo not drawn) [PF120, 2-Chloro-N-(3-chloro-4-cyanophenyl)-5-(trans)-2,2-dichloro-3-(3,5-dichlorophenyl)cyclopropane-1-carboxamido)benzamide], in assay [3], the YFM rating result is “A (80-100)”.

For the origin of these results see patent publication US10219516B2, “Molecules having pesticidal utility, and intermediates, compositions, and processes, related thereto” (priority 2015, dated 2019).
